According to patent US4668685A (priority 1985, dated 1987):
Counter-ions that a name gives are not always drawn.

Experiments:
[1] = Plasma hydrolysis of nalbuphine prodrug, human plasma
[2] = Plasma hydrolysis of nalbuphine prodrug, monkey plasma
[3] = Plasma hydrolysis of nalbuphine prodrug, dog plasma
[4] = Plasma hydrolysis of nalbuphine prodrug, rat plasma
[5] = Oral 3-hydroxymorphinan bioavailability, species not printed at the place; conditions: 10 mg naloxone/kg, species not given
[6] = Oral 3-hydroxymorphinan bioavailability (nalbuphine), rat; conditions: plasma, 20 mg/kg
[7] = Oral 3-hydroxymorphinan bioavailability, dog (drug and prodrugs); conditions: 4 mg/kg
[8] = Oral nalbuphine bioavailability, monkey; conditions: 4 mg nalbuphine/kg, % dose, two values, 4 mg/kg
[9] = Oral nalbuphine bioavailability, human

| SMILES | half-life at 0.28 µM [1] [h] | half-life at 0.28 µM [2] [h] | half-life at 0.28 µM [3] [h] | half-life at 0.28 µM [4] [h] | also measured |
| --- | --- | --- | --- | --- | --- |
| Nc1ccccc1C(=O)Oc1ccc2c3c1O[C@H]1[C@@H](O)CC[C@@]4(O)[C@@H](C2)N(CC2CCC2)CC[C@]314 [Example 2, Nalbuphine-3-anthranilate hydrochloride] | 45 | 3.3 | 14.6 | 1.5 | – |
| C=CCN1CC[C@]23c4c5ccc(O)c4O[C@H]2C(=O)CC[C@@]3(O)[C@H]1C5 [naloxone HCl, (-)-17-Allyl-4,5α-epoxy-3,14-dihydroxymorphinan-6-one] | – | – | – | – | Plasma naloxone concentrations after oral naloxone HCl [5]: close to the assay detection limits and as such were erratic |
| Oc1ccc2c3c1O[C@H]1[C@@H](O)CC[C@@]4(O)[C@@H](C2)N(CC2CCC2)CC[C@]314 [nalbuphine, (-)-17-(Cyclobutylmethyl)-4,5α-epoxymorphinan-3,6α,14-triol] | – | – | – | – | bioavailability [6]: 2.7 ± 0.4%; Oral nalbuphine bioavailability (F) ([7]; oral, 4 mg nalbuphine/kg, % dose, mean ± SE): 5.4 ± 0.9%; bioavailability ([7]; plasma, po): 5.4%; Oral nalbuphine bioavailability (F) [8]: 1.6%; bioavailability ([8]; plasma, po, Oral nalbuphine bioavailability (F)): 0.9%; Oral nalbuphine bioavailability (F) ([9]; 45 mg tablet or solution, % dose): 14%; bioavailability ([9]; plasma, po, 45 mg): 14% |
| CC(=O)Oc1ccccc1C(=O)Oc1ccc2c3c1O[C@H]1[C@@H](O)CC[C@@]4(O)[C@@H](C2)N(CC2CCC2)CC[C@]314 [Example 1, Nalbuphine-3-(acetylsalicylate)] | 6.2 | 0.6 | 2.8 | 0.2 | – |
